The source of these data is ChEMBL document CHEMBL1201862, “PubChem BioAssay data set” (2004).

Some test systems named below: 786-0; ACHN; EKVX; HCC 2998; HOP-62; K562; LOX IMVI; Malme-3M; NCI-H23; OVCAR-4; OVCAR-8; SF-539; SK-MEL-28; SK-OV-3; SR; U-251; UACC-62; MDA-MB-435; NCI/ADR-RES; T47D.
Assay in all cases: NCI tumour cell line growth inhibition, 48 h

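Results reflect a 48-hour exposure of cells in 96-well plates to compound at five concentrations. GI50 marks 50% less growth.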 Calls of active or inactive are those of the source. Rule as the data show it: active = GI50 up to about 1.1 µM and inactive = higher. Peptide text beside a SMILES is read from it. * marks the point of attachment. Boc = CC(C)(C)OC(=O)*

Consider `[O-][S+]1Nc2cccc(C(F)(F)F)c2S1` (configuration not stated), for which the GI50 with 786-0 is 42.1 µM (inactive); with ACHN, 37.2 µM (inactive); in the assay on EKVX, 38.8 µM (inactive); in the assay with HCC 2998, 26.4 µM (inactive); in the assay with HOP-62, 49.8 µM (inactive); in the assay with K562 it was 31.3 µM (inactive). The GI50 in the assay with LOX IMVI is 21.1 µM (inactive); in the assay with Malme-3M, 51.2 µM (inactive); in the assay with NCI-H23, 41.8 µM (inactive); in the assay on OVCAR-4, 46.7 µM (inactive); in the assay with OVCAR-8, 54.8 µM (inactive); in the assay with SF-539, 58.6 µM (inactive). Also, the GI50 was > 100 µM (inactive) in the assay on SK-MEL-28; > 100 µM (inactive) in the assay with SK-OV-3; 25.5 µM (inactive) in the assay on SR; 31.3 µM (inactive) with U-251; 27.7 µM (inactive) with UACC-62.
With `O=c1nc2sc3ccc4ccccc4c3n2nc1-c1ccccc1`, the GI50 is 18.7 µM (inactive) in the assay on 786-0; 27.8 µM (inactive) in the assay on ACHN; 41.8 µM (inactive) with EKVX; > 100 µM (inactive) in the assay with HCC 2998; 26.7 µM (inactive) with HOP-62; > 100 µM (inactive) in the assay on K562. Further, the GI50 was 15.1 µM (inactive) in the assay with LOX IMVI; 21.4 µM (inactive) in the assay on Malme-3M; 27.2 µM (inactive) with NCI-H23; 14.7 µM (inactive) in the assay on OVCAR-4; 18.9 µM (inactive) in the assay with OVCAR-8; 14.8 µM (inactive) in the assay with SF-539. Moreover, the GI50 was 35.6 µM (inactive) in the assay on SK-MEL-28; 36.1 µM (inactive) in the assay with SK-OV-3; 71.6 µM (inactive) in the assay with SR; 19 µM (inactive) in the assay on U-251; 64.4 µM (inactive) in the assay on UACC-62.
Regarding `COC1(OC)N=C(N)C2(C#N)C(C)=C3NCN(C)N=C3C12C#N` (configuration not stated), the GI50 in the assay on 786-0, in the assay on ACHN, with EKVX, in the assay on HCC 2998, with HOP-62 and in the assay with K562 was > 100 µM (inactive) in each case. For the same compound, the GI50 in the assay with LOX IMVI, in the assay on MDA-MB-435, with Malme-3M, with NCI-H23, in the assay on NCI/ADR-RES and in the assay on OVCAR-8 was > 100 µM (inactive) in each case. The GI50 with SF-539, in the assay on SK-MEL-28, in the assay on SK-OV-3, with T47D, with U-251 and in the assay with UACC-62 was > 100 µM (inactive) throughout.
For `OC(c1ccc(F)cc1)C(F)(F)c1nc(-c2ccccc2)no1` (configuration not stated), the GI50 in the assay on 786-0 was 20.1 µM (inactive); in the assay with ACHN, 27.2 µM (inactive); in the assay with EKVX, 22.9 µM (inactive); with LOX IMVI, 86.5 µM (inactive); in the assay with MDA-MB-435, 19.4 µM (inactive); in the assay with Malme-3M, 13.9 µM (inactive). Further, the GI50 with NCI-H23 is 26.1 µM (inactive); with NCI/ADR-RES, 30.6 µM (inactive); with OVCAR-4, 20.7 µM (inactive); with OVCAR-8, > 100 µM (inactive); in the assay with SK-MEL-28 it was 21.1 µM (inactive); in the assay with T47D, 23.7 µM (inactive). For the same compound, the results for the GI50 in the assay on U-251 and in the assay with UACC-62 were 0.126 µM (active) and 18.2 µM (inactive), respectively.
For the compound `CN1CCCCC1CCN1CCCCC1` (configuration not stated), the GI50 in the assay with 786-0, with ACHN, in the assay on EKVX, in the assay with HCC 2998, in the assay on HOP-62 and in the assay on K562 was > 100 µM (inactive) in each case. Also, the GI50 in the assay on LOX IMVI, in the assay on MDA-MB-435, in the assay on Malme-3M, in the assay on NCI-H23, with NCI/ADR-RES and in the assay on OVCAR-4 was > 100 µM (inactive) in each case. Besides, the GI50 with OVCAR-8, in the assay with SK-MEL-28, in the assay on SK-OV-3, with T47D, with U-251 and in the assay on UACC-62 was > 100 µM (inactive) throughout.
With `CC(C)(C)OC[C@H](O)CC#N`, the GI50 with 786-0, in the assay with ACHN, in the assay on EKVX, with HCC 2998, in the assay on HOP-62 and with K562 was > 100 µM (inactive) each time. The GI50 with LOX IMVI, in the assay on MDA-MB-435, in the assay on Malme-3M, in the assay on NCI-H23, in the assay with OVCAR-4 and in the assay on OVCAR-8 was > 100 µM (inactive) in each case. In addition, the GI50 in the assay with SF-539, in the assay on SK-MEL-28, in the assay on SK-OV-3, in the assay with SR, in the assay with T47D and with U-251 was > 100 µM (inactive) each time. The GI50 in the assay with UACC-62 was > 100 µM (inactive).
Consider `CCOC(=O)n1c2ccccc2c(=O)n1CCO`, for which the GI50 in the assay with 786-0, in the assay with ACHN, in the assay with EKVX, with HCC 2998, with HOP-62 and with K562 was > 100 µM (inactive) each time. Moreover, the GI50 with Malme-3M, in the assay with NCI-H23, in the assay with NCI/ADR-RES, with OVCAR-4, in the assay with OVCAR-8 and in the assay on SF-539 was > 100 µM (inactive) each time. For the same compound, the GI50 is > 100 µM (inactive) in the assay on SK-MEL-28; > 100 µM (inactive) in the assay on SK-OV-3; > 100 µM (inactive) in the assay on SR; 7.45 µM (inactive) with T47D; > 100 µM (inactive) with U-251; > 100 µM (inactive) in the assay with UACC-62.
With `O=C(/C=C/c1ccc(Br)cc1)c1ccc(NCc2nc3ccccc3[nH]2)cc1`, the GI50 with 786-0 was 5.25 µM (inactive); in the assay on ACHN, 17.5 µM (inactive); in the assay with EKVX, > 30.2 µM (inactive); in the assay with HCC 2998, 6.56 µM (inactive); with HOP-62 it was 22.2 µM (inactive); in the assay on K562, 3.35 µM (inactive). Also, the GI50 in the assay with LOX IMVI is 2.11 µM (inactive); in the assay with Malme-3M, 25 µM (inactive); with NCI-H23, 4.95 µM (inactive); with OVCAR-4, 14.4 µM (inactive); in the assay with OVCAR-8, 3.37 µM (inactive); in the assay on SF-539 it was 10 µM (inactive). The GI50 in the assay with SK-MEL-28 is 18.6 µM (inactive); in the assay with SK-OV-3, 28.4 µM (inactive); with SR, 5.69 µM (inactive); in the assay on U-251, 3.83 µM (inactive); with UACC-62 it was 7.1 µM (inactive).
As for `O=C(CCc1ccccc1)NS(=O)(=O)c1ccccc1`, the GI50 in the assay on 786-0, with ACHN, with EKVX, with HCC 2998, with HOP-62 and with K562 was > 100 µM (inactive) in each case. Moreover, the GI50 in the assay on LOX IMVI, with Malme-3M, in the assay with NCI-H23, in the assay on OVCAR-4, in the assay on OVCAR-8 and in the assay on SF-539 was > 100 µM (inactive) each time. Moreover, the GI50 in the assay with SK-MEL-28, in the assay with SK-OV-3, in the assay with SR, in the assay on U-251 and in the assay on UACC-62 was > 100 µM (inactive) each time.
Turning to `COc1ccc2nc3cc(Cl)ccc3c(NCCCN3CCN(CCCNc4ccc5nnn6c7ccccc7c(=O)c4c56)CC3)c2c1`, the GI50 is 0.646 µM (active) in the assay with 786-0; > 17 µM (inactive) in the assay on EKVX; 0.303 µM (active) with HCC 2998; > 25 µM (inactive) in the assay with HOP-62; 0.512 µM (active) in the assay with LOX IMVI; 3.25 µM (inactive) with MDA-MB-435. In addition, the GI50 was 19.5 µM (inactive) in the assay on NCI-H23; 4.89 µM (inactive) with NCI/ADR-RES; 1.42 µM (inactive) in the assay on OVCAR-8; 0.21 µM (active) in the assay on SF-539; > 25 µM (inactive) in the assay on SK-MEL-28; > 25 µM (inactive) in the assay with SK-OV-3. Also, the GI50 is > 25 µM (inactive) in the assay with T47D, 1.32 µM (inactive) in the assay with U-251 and > 25 µM (inactive) in the assay with UACC-62.
Take `C[N+](C)(C)CC1CCC(C[N+](C)(C)C)C1=O` (configuration not stated): the GI50 was 1.91 µM (inactive) in the assay with 786-0; 1.82 µM (inactive) with ACHN; 8.63 µM (inactive) in the assay with HCC 2998; 19.2 µM (inactive) with HOP-62; 0.359 µM (active) in the assay on K562; 4.84 µM (inactive) in the assay with LOX IMVI. Also, the GI50 is 16.3 µM (inactive) in the assay with MDA-MB-435; 1.08 µM (active) in the assay on Malme-3M; 4.22 µM (inactive) in the assay on NCI-H23; 2.38 µM (inactive) with OVCAR-4; 7.74 µM (inactive) with SF-539; 23.4 µM (inactive) in the assay with SK-OV-3. For the same compound, the GI50 was 0.4 µM (active) in the assay on SR, 3.42 µM (inactive) in the assay on T47D, 9.12 µM (inactive) in the assay with U-251 and 8.53 µM (inactive) in the assay on UACC-62.
Regarding `COC(=O)C(Cc1c[nH]c2ccccc12)NC(=O)C(Cc1c[nH]c2ccccc12)NC(=O)C(Cc1c[nH]c2ccccc12)NC(=O)C(Cc1c[nH]c2ccccc12)NC(=O)C(Cc1c[nH]c2ccccc12)NC(=O)OC(C)(C)C` (configuration not stated) (Boc-WWWWW-OMe; configuration not given here), the GI50 is 60 µM (inactive) with 786-0; 74 µM (inactive) with ACHN; > 100 µM (inactive) in the assay on HCC 2998; > 100 µM (inactive) with HOP-62; 36.8 µM (inactive) in the assay on K562; 67.6 µM (inactive) in the assay with LOX IMVI. Besides, the GI50 with MDA-MB-435 is > 100 µM (inactive); with Malme-3M, 94.2 µM (inactive); with NCI-H23, 58.1 µM (inactive); in the assay on OVCAR-4 it was > 100 µM (inactive); in the assay with OVCAR-8, > 100 µM (inactive); in the assay on SK-MEL-28, 55.7 µM (inactive). Further, the GI50 with SR is 32.4 µM (inactive); with T47D, 10.7 µM (inactive); with U-251 it was 65.9 µM (inactive); with UACC-62, 26.5 µM (inactive).
